One experiment concerns MDCK cells. The class given is cell-based.
In a further experiment the test system is MCP-1. More on the design: species or system mice. Conditions: mouse, in vivo.

Here are results for eight substances from US20180161425A1, “NOVEL PROTEIN STRUCTURE USED FOR EFFICIENT ANTIBODY PRODUCTION IN IMMUNIZATION” (priority 2014, published 2018).

Values joined by “and” are separate entries in the source; they are usually repeats but may differ in a detail not shown here. Identical values can stand only once.

As for DRLFFKCIYRRFKYGLKRG [AH5], the “cell binding and internalization of FITC labeled peptide” value (shortened to “cell binding and internalization”) in the experiment on MDCK cells is “did not bind to the membrane as well as AH2, they did all bind and were internalized to the cell at different levels”.

On to DRLFFKCIYRRLKYGLKRG [AH3], for which the “cell binding and internalization” value in the experiment with MDCK cells was “did not bind to the membrane as well as AH2, they did all bind and were internalized to the cell at different levels”.

Take DRLFFKCVYRLFKHGLKRG [AH4]: the “cell binding and internalization” value in the experiment with MDCK cells was “did not bind to the membrane as well as AH2, they did all bind and were internalized to the cell at different levels”.

Take KRLFKLSYIETRYMASDK [SWS-AH]: in the experiment with MDCK cells, the “cell binding activity when compared to AH2 peptide” value is given as 24%.

Take MHSATAAQLETLRLFKFP [ANMV-AH]: in the experiment on MDCK cells, the “cell binding activity when compared to AH2 peptide” value is given as 15%.

With MPRLFKIYAKNYFLTYPN [TYLCV-AH], the “cell binding activity when compared to AH2 peptide” value in the experiment with MDCK cells is 25%.

For the substance RTLSLLRRLFFKSDLGFL [AHV-AH], in the experiment with MDCK cells, the “cell binding activity when compared to AH2 peptide” value came to 40%.

Turning to flagellin, in the experiment on MCP-1, the “plasma MCP-1 level” value is 3000 pg/mL and 2600 pg/mL.
